Where a name gives a salt, the structure may show the parent alone.
test system: OVCAR-8 cells; assay: Drug-siRNA combination screen: 346-compound anticancer library at 100 nM, CCK-8 viability; conditions: not given

| Compound | Score (sum of observed SD values for 18 genes) | synergy / antagonism of drug with gene knockdowns, in words |
| --- | --- | --- |
| CCOc1cc2ncc(C#N)c(Nc3ccc(OCc4ccccn4)c(Cl)c3)c2cc1NC(=O)/C=C/CN(C)C [Neratinib] | −39.86 SD | significant synergy with nine or more genes |

same assay, conditions: OVCAR-8; drug 100 nM plus siRNA knockdown of each of 18 genes; distance VAB−VA×VB in SD; single gene contributes at most +5 / −5; negative = synergy, positive = antagonism

| Compound | Score (sum of observed SD values for 18 genes) |
| --- | --- |
| CC(C)C[C@H](NC(=O)CNC(=O)c1cc(Cl)ccc1Cl)B(O)O [Ixazomib] | -52.76 SD |
| Nc1nc(Nc2ccc(S(N)(=O)=O)cc2)nn1C(=O)c1c(F)cccc1F [JNJ - 7706621] | 5.07 SD |
| Cn1cc(-c2ccc3nnc(C(F)(F)c4ccc5ncccc5c4)n3n2)cn1 [JNJ−38877605] | 2.72 SD |
| O=c1cc(-c2cccc3c2Sc2ccccc2S3)oc(N2CCOCC2)c1 [KU-55933] | −14.37 SD |
| C[C@@H]1CN(CC(=O)Nc2ccc3c(c2)Cc2cccc(-c4cc(=O)cc(N5CCOCC5)o4)c2S3)C[C@H](C)O1 [KU-60019] | −25.5 SD |
| O=C(Cc1ccc(-c2ccc(OCCN3CCOCC3)cc2)cn1)NCc1ccccc1 [KX2-391] | 13.4 SD |
| COc1ccc(-c2ccc3c(N4CCOCC4)nc(N4C[C@@H](C)O[C@@H](C)C4)nc3n2)cc1CO [Ku-0063794] | −41.94 SD |
| c1ccc2c(-c3cnn4cc(-c5ccc(N6CCNCC6)cc5)cnc34)ccnc2c1 [LDN193189] | −28.37 SD |
| O=c1cc(N2CCOCC2)oc2c(-c3ccccc3)cccc12 [LY294002] | −8.41 SD |
| c1ccc(-c2nn3c(c2-c2ccnc4cc(OCCN5CCOCC5)ccc24)CCC3)nc1 [LY2109761] | −40.45 SD |
| Cc1cccc(-c2nn3c(c2-c2ccnc4ccc(C(N)=O)cc24)CCC3)n1 [LY2157299] | −0.82 SD |
| CC(C)(C)Cn1c(N)nc2ccc(-c3[nH]c(C(C)(C)C)nc3-c3ccc(F)cc3)nc21 [LY2228820] | −30.98 SD |
| Cc1cnc(NC(=O)Nc2cc(Br)c(C)cc2OC[C@@H]2CNCCO2)cn1 [LY2603618] | -52.09 SD |
| COc1cc2nccc(Oc3ccc(NC(=O)NC4CC4)c(Cl)c3)c2cc1C(N)=O [Lenvatinib] | −27.5 SD |
| Nc1nc(=O)c2c([nH]1)NCC(CNc1ccc(C(=O)N[C@@H](CCC(=O)[O-])C(=O)[O-])cc1)N2C=O.[Ca+2] (stereo partly drawn) [Leucovorin Calcium] | 1.29 SD |
| Cc1ccc(F)c(NC(=O)Nc2ccc(-c3cccc4[nH]nc(N)c34)cc2)c1 [Linifanib] | −25.28 SD |
| C[C@]1(O)C[C@@H](c2nc(-c3ccc4ccc(-c5ccccc5)nc4c3)c3c(N)nccn32)C1 [Linsitinib] | −28.72 SD |
| O=C(O)c1nn(Cc2ccc(Cl)cc2Cl)c2ccccc12 [Lonidamine] | −16.85 SD |
| O=C(O)CC[C@H]1CC[C@@](c2cc(F)ccc2F)(S(=O)(=O)c2ccc(Cl)cc2)CC1 [MK-0752] | −34.92 SD |
| C=CCn1c(=O)c2cnc(Nc3ccc(N4CCN(C)CC4)cc3)nc2n1-c1cccc(C(C)(C)O)n1 [MK-1775] | -64.04 SD |

| Compound | Score (sum of observed SD values for 18 genes) |
| --- | --- |
| Cl.Cl.NC1(c2ccc(-c3nc4ccc5n[nH]c(=O)n5c4cc3-c3ccccc3)cc2)CCC1 [MK-2206 2HCI] | −23.29 SD |
| CC(C)C[C@H](NC(=O)CNC(=O)c1cc(Cl)ccc1Cl)B1OC(=O)C(CC(=O)O)(CC(=O)O)O1 [MLN9708] | −34 SD |
| Cc1ccc(NC(=O)c2ccc(CN3CCN(C)CC3)cc2)cc1Nc1nc(-c2cccnc2)cs1 [Masitinib] | −4.23 SD |
| C[C@H]1C[C@H]2[C@@H]3CCC4=CC(=O)C=C[C@]4(C)[C@H]3C(=O)C[C@]2(C)[C@@]1(O)C(=O)CO [Meprednisone] | −25.82 SD |
| O=S(=O)(O)CCS [Mesna] | −15.88 SD |
| CC#C[C@]1(O)CC[C@H]2[C@@H]3CCC4=CC(=O)CCC4=C3[C@@H](c3ccc(N(C)C)cc3)C[C@@]21C [Mifepristone] | −22.75 SD |
| Nc1ccccc1NC(=O)c1ccc(CNc2nccc(-c3cccnc3)n2)cc1 [Mocetinostat] | 1.27 SD |
| N#CCNC(=O)c1ccc(-c2ccnc(Nc3ccc(N4CCOCC4)cc3)n2)cc1 [Momelotenib] | −0.52 SD |
| CC1(C)CNc2cc(NC(=O)c3cccnc3NCc3ccncc3)ccc21 [Motesanib Diphosphate] | −12.16 SD |
| COc1c(C)c2c(c(O)c1C/C=C(\C)CCC(=O)OCCN1CCOCC1)C(=O)OC2 [Mycophenolate mofetil] | −3.2 SD |
| COc1c(C)c2c(c(O)c1C/C=C(\C)CCC(=O)O)C(=O)OC2 [Mycophenolic acid] | −20.87 SD |
| O=c1cc(N2CCOCC2)oc2c(-c3cccc4c3sc3ccccc34)cccc12 [NU7441] | −10.42 SD |
| CCN1CCN(Cc2ccc(-c3cc4c(N[C@H](C)c5ccccc5)ncnc4[nH]3)cc2)CC1 [NVP-AEE788] | −41.08 SD |
| Cl.Cl.Fc1cc(-c2cccc3ncc(-c4cnn(C5CCNCC5)c4)nc23)cc(F)c1CN1CCOCC1 [NVP-BSK805 2HCI] | −43.77 SD |
| CC1(C)CCC(c2ccc(Cl)cc2)=C(CN2CCN(c3ccc(C(=O)NS(=O)(=O)c4ccc(N[C@H](CCN5CCOCC5)CSc5ccccc5)c(S(=O)(=O)C(F)(F)F)c4)cc3)CC2)C1 [Navitoclax] | −13.79 SD |
| COC(=O)c1ccc2c(c1)NC(=O)/C2=C(\Nc1ccc(N(C)C(=O)CN2CCN(C)CC2)cc1)c1ccccc1 [Nintedanib] | −36.11 SD |
| COC(=O)Nc1nc2ccc(C(=O)c3cccs3)cc2[nH]1 [Nocodazole] | −7.78 SD |
| COc1ccc(C2=N[C@@H](c3ccc(Cl)cc3)[C@@H](c3ccc(Cl)cc3)N2C(=O)N2CCNC(=O)C2)c(OC(C)C)c1 [Nutlin-3] | −5.25 SD |
| C#Cc1cccc(Nc2ncnc3cc(OCCOC)c(OCCO)cc23)c1 [OSI-420] | −27.08 SD |
| O=C(Nc1ccc(OC(F)(F)F)cc1)c1sccc1NCc1ccnc2ccccc12 [OSI-930] | −0.3 SD |

| Compound | Score (sum of observed SD values for 18 genes) |
| --- | --- |
| COC1=CC(c2cc3ccccc3[nH]2)=N/C1=C\c1[nH]c(C)cc1C [Obatoclax mesylate] | −10.02 SD |
| O=C(c1cc(Cc2n[nH]c(=O)c3ccccc23)ccc1F)N1CCN(C(=O)C2CC2)CC1 [Olaparib] | −19.18 SD |
| C[C@](O)(COc1ccc(C#N)cc1)C(=O)Nc1ccc(C#N)c(C(F)(F)F)c1 [Ostarine] | −14.47 SD |
| C=CCc1cccc(/C=N/NC(=O)CN2CCN(Cc3ccccc3)CC2)c1O [PAC - 1] | −13.56 SD |
| CN(C)Cc1c(C(=O)NCCOc2ccc(C(=O)NO)cc2)oc2ccccc12 [PCI-24781] | -54.91 SD |
| CCN(CC)CCCCNc1ncc2cc(-c3cc(OC)cc(OC)c3)c(NC(=O)NC(C)(C)C)nc2n1 [PD173074] | −46.63 SD |
| O=C(NOC[C@H](O)CO)c1ccc(F)c(F)c1Nc1ccc(I)cc1F [PD0325901] | −37.42 SD |
| CS(=O)(=O)c1cccc(CNc2nc(Nc3ccc4c(c3)CCC(=O)N4)ncc2C(F)(F)F)c1 [PF 573228] | −28.79 SD |
| CN(c1ncccc1CNc1nc(Nc2ccc3c(c2)CC(=O)N3)ncc1C(F)(F)F)S(C)(=O)=O [PF - 562271] | −17.41 SD |
| O=C(Nc1cccnc1)N1CCC(Cc2cccc(Oc3ccc(C(F)(F)F)cn3)c2)CC1 [PF-3845] | -51.78 SD |
| CC(=O)NCC(=O)N1[C@@H]2CC[C@H]1c1ccc(Nc3ncc(C(F)(F)F)c(NC4CCC4)n3)cc12 [PF-03814735] | −30.13 SD |
| OCCn1cc(-c2cnc3nnn(Cc4ccc5ncccc5c4)c3n2)cn1 [PF-04217903] | −6.89 SD |
| CNC(=O)c1ccc(C)c(-n2c(C)cc(OCc3ccc(F)cc3F)c(Br)c2=O)c1 [PH-797804] | -64.86 SD |
| Cc1[nH]c(/C=C2\C(=O)Nc3ccc(S(=O)(=O)Cc4c(Cl)cccc4Cl)cc32)c(C)c1C(=O)N1CCC[C@@H]1CN1CCCC1 [PHA-665752] | −13.95 SD |
| CC(C)CC(=O)Nc1[nH]nc2c1CN(C(=O)C1CCN(C)CC1)C2(C)C [PHA-793887] | −42.75 SD |
| Oc1cccc(-c2nc(N3CCOCC3)c3oc4ncccc4c3n2)c1 [PI-103] | -56.96 SD |
| Cc1ccc([N+](=O)[O-])cc1S(=O)(=O)N(C)/N=C/c1cnc2ccc(Br)cn12 [PIK-75] | −19.42 SD |
| COc1ccc2c(c1OC)N=C(NC(=O)c1cccnc1)N1CCN=C21 [PIK-90] | −44.52 SD |
| CC(=O)Nc1nc(C)c(-c2ccc(Cl)c(S(=O)(=O)NCCO)c2)s1 [PIK-93] | −20.62 SD |

same assay, conditions: OVCAR-8; drug 100 nM; panel of 18 siRNA knockdowns

| Compound | synergy / antagonism of drug with gene knockdowns, in words |
| --- | --- |
| Cc1cnc(NC(=O)Nc2cc(Br)c(C)cc2OC[C@@H]2CNCCO2)cn1 [LY2603618] | high level of synergism |
| C=CCn1c(=O)c2cnc(Nc3ccc(N4CCN(C)CC4)cc3)nc2n1-c1cccc(C(C)(C)O)n1 [MK-1775] | Frequently among the top synergizing pairs |
| Nc1ccccc1NC(=O)c1ccc(CNc2nccc(-c3cccnc3)n2)cc1 [Mocetinostat] | frequently antagonized by knockdown of specific genes |
| CN(C)Cc1c(C(=O)NCCOc2ccc(C(=O)NO)cc2)oc2ccccc12 [PCI-24781] | mostly synergistic |
| CCN(CC)CCCCNc1ncc2cc(-c3cc(OC)cc(OC)c3)c(NC(=O)NC(C)(C)C)nc2n1 [PD173074] | significant synergy with nine or more genes |
| CC(=O)NCC(=O)N1[C@@H]2CC[C@H]1c1ccc(Nc3ncc(C(F)(F)F)c(NC4CCC4)n3)cc12 [PF-03814735] | significant synergy |
| CC(C)CC(=O)Nc1[nH]nc2c1CN(C(=O)C1CCN(C)CC1)C2(C)C [PHA-793887] | strong synergies with multiple genes |
| Oc1cccc(-c2nc(N3CCOCC3)c3oc4ncccc4c3n2)c1 [PI-103] | synergy to the vast majority of genes |

same assay, conditions: OVCAR-8; drug 100 nM; siRNA knockdown

| Compound | number of genes (of 18) with high synergy with the drug | number of genes (of 18) whose knockdown synergizes with the drug |
| --- | --- | --- |
| C=CCn1c(=O)c2cnc(Nc3ccc(N4CCN(C)CC4)cc3)nc2n1-c1cccc(C(C)(C)O)n1 [MK-1775] | 13 genes |  |
| CN(C)Cc1c(C(=O)NCCOc2ccc(C(=O)NO)cc2)oc2ccccc12 [PCI-24781] |  | 12 genes |
| CNC(=O)c1ccc(C)c(-n2c(C)cc(OCc3ccc(F)cc3F)c(Br)c2=O)c1 [PH-797804] |  | 14 genes |

Reference: patent US11946094B2, “Combination therapies and methods of use thereof” (Augusta University Research Institute, Inc., priority 2017, dated 2024)
